# Patent US8563542B2 (Cyclacel Limited, priority 2007, dated 2013)
# Biological target: PLK1 (Homo sapiens, UniProt P53350)
# Assay: PLK1 protein kinase assay (CDC25C phosphorylation, [γ-32P]-ATP)
# Assay type: biochemical
# Settings: not given
# PLK1, sequence (P53350 whole entry): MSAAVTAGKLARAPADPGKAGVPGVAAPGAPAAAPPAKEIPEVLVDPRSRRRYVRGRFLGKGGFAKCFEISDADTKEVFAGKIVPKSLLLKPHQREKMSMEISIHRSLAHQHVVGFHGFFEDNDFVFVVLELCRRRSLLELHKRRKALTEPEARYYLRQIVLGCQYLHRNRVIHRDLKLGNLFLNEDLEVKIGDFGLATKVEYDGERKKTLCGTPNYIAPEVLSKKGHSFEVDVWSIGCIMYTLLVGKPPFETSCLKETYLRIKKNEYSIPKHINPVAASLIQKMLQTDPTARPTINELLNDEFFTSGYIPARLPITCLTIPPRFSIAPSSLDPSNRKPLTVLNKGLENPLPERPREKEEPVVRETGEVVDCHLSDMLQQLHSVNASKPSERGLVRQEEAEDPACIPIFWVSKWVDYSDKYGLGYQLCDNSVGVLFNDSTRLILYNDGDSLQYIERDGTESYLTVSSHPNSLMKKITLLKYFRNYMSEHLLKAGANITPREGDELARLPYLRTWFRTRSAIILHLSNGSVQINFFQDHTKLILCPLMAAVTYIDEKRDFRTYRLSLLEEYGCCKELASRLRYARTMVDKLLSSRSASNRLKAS
row,SMILES,IC50
1,"COc1cc(C(=O)NC2CCN(C)CC2)ccc1Nc1ncc2c(n1)N(C1CCCC1)CC(C)C(=O)N2C (stereo not drawn) [compound 20, 4-(9-Cyclopentyl-5,7-dimethyl-6-oxo-6,7,8,9-tetrahydro-5H-pyrimido[4,5-b][1,4]diazepin-2-ylamino)-3-methoxy-N-(1-methyl-piperidin-4-yl)-benzamide]",< 100 nM
2,"COc1cc(C(=O)NC2CCN(C)CC2)ccc1Nc1ncc2c(n1)N(C1CCCC1)C(C)CC(=O)N2C (stereo not drawn) [compound 33, 4-(9-Cyclopentyl-5,8-dimethyl-6-oxo-6,7,8,9-tetrahydro-5H-pyrimido[4,5-b][1,4]diazepin-2-ylamino)-3-methoxy-N-(1-methyl-piperidin-4-yl)-benzamide]",< 1000 nM

# Same assay, conditions: Table 1; read-out: PLK1 IC50
row,IC50,SMILES
1,< 10000 nM,"O=C1CCN(C2CCCCC2)c2nc(Nc3ccc(O)cc3)ncc2N1 [compound 10, 9-Cyclohexyl-2-(4-hydroxy-phenylamino)-5,7,8,9-tetrahydro-pyrimido[4,5-b][1,4]diazepin-6-one]"
2,< 10000 nM,"CC1CN(C2CCCC2)c2nc(Nc3ccc(O)cc3)ncc2NC1=O (stereo not drawn) [compound 11, 9-Cyclopentyl-2-(4-hydroxy-phenylamino)-7-methyl-5,7,8,9-tetrahydro-pyrimido[4,5-b][1,4]diazepin-6-one]"
3,< 10000 nM,"CC1CC(=O)N(C)c2cnc(Nc3ccc(O)cc3)nc2N1C1CCCC1 (stereo not drawn) [compound 13, 9-Cyclopentyl-2-(4-hydroxy-phenylamino)-5,8-dimethyl-5,7,8,9-tetrahydro-pyrimido[4,5-b][1,4]diazepin-6-one]"
4,< 10000 nM,"COc1cc(C(=O)NC2CCN(C)CC2)ccc1Nc1ncc2c(n1)N(C1CCCC1)C(C(C)C)CC(=O)N2 (stereo not drawn) [compound 19, 4-(9-Cyclopentyl-8-isopropyl-6-oxo-6,7,8,9-tetrahydro-5H-pyrimido[4,5-b][1,4]diazepin-2-ylamino)-3-methoxy-N-(1-methyl-piperidin-4-yl)-benzamide]"
5,< 10000 nM,"COc1cc(C(=O)NC2CCN(C)CC2)ccc1Nc1ncc2c(n1)N(C1CCCC1)C(C(C)C)CC(=O)N2C (stereo not drawn) [compound 23, 4-(9-Cyclopentyl-8-isopropyl-5-methyl-6-oxo-6,7,8,9-tetrahydro-5H-pyrimido[4,5-b][1,4]diazepin-2-ylamino)-3-methoxy-N-(1-methyl-piperidin-4-yl)-benzamide]"
6,< 10000 nM,"CCC(CC)N1CCC(=O)N(C)c2cnc(Nc3ccc(C(=O)NC4CCN(C)CC4)cc3OC)nc21 [compound 24, 4-[9-(1-Ethyl-propyl)-5-methyl-6-oxo-6,7,8,9-tetrahydro-5H-pyrimido[4,5-b][1,4]diazepin-2-ylamino]-3-methoxy-N-(1-methyl-piperidin-4-yl)-benzamide]"
7,< 1000 nM,"COc1cc(C(=O)NC2CCN(C)CC2)ccc1Nc1ncc2c(n1)N(C1CCOCC1)CCC(=O)N2C [compound 26, 3-Methoxy-4-[5-methyl-6-oxo-9-(tetrahydro-pyran-4-yl)-6,7,8,9-tetrahydro-5H-pyrimido[4,5-b][1,4]diazepin-2-ylamino]-N-(1-methyl-piperidin-4-yl)-benzamide]"
8,< 1000 nM,"CCN1C(=O)C(C)CN(C2CCCC2)c2nc(Nc3ccc(C(=O)NC4CCN(C)CC4)cc3OC)ncc21 (stereo not drawn) [compound 28, 4-(9-Cyclopentyl-5-ethyl-7-methyl-6-oxo-6,7,8,9-tetrahydro-5H-pyrimido[4,5-b][1,4]diazepin-2-ylamino)-3-methoxy-N-(1-methyl-piperidin-4-yl)-benzamide]"
9,< 10000 nM,"COc1cc(C(=O)NC2CCN(C)CC2)ccc1Nc1ncc2c(n1)N(Cc1ccccc1)CCC(=O)N2C [compound 29, 4-(9-Benzyl-5-methyl-6-oxo-6,7,8,9-tetrahydro-5H-pyrimido[4,5-b][1,4]diazepin-2-ylamino)-3-methoxy-N-(1-methyl-piperidin-4-yl)-benzamide]"
10,< 1000 nM,"COc1cc(C(=O)NC2CCN(C)CC2)ccc1Nc1ncc2c(n1)N(c1ccccc1)CCC(=O)N2C [compound 30, 3-Methoxy-4-(5-methyl-6-oxo-9-phenyl-6,7,8,9-tetrahydro-5H-pyrimido[4,5-b][1,4]diazepin-2-ylamino)-N-(1-methyl-piperidin-4-yl)-benzamide]"
11,< 100 nM,COc1cc(C(=O)NC2CCN(C)CC2)ccc1Nc1ncc2c(n1)N(C1CCCC1)CC1(CC1)C(=O)N2C [compound 31]
12,< 1000 nM,"COc1cc(C(=O)NC2CCN(C)CC2)ccc1Nc1ncc2c(n1)N(C1CCCCC1)C(C)CC(=O)N2 (stereo not drawn) [compound 35, 4-(9-Cyclohexyl-8-methyl-6-oxo-6,7,8,9-tetrahydro-5H-pyrimido[4,5-b][1,4]diazepin-2-ylamino)-3-methoxy-N-(1-methyl-piperidin-4-yl)-benzamide]"
13,< 10000 nM,"COc1cc(C(=O)NC2CCN(C)CC2)ccc1Nc1ncc2c(n1)N(C1CCCC1)CCC(=O)N2 [compound 36, 4-(9-Cyclopentyl-6-oxo-6,7,8,9-tetrahydro-5H-pyrimido[4,5-b][1,4]diazepin-2-ylamino)-3-methoxy-N-(1-methyl-piperidin-4-yl)-benzamide]"
14,< 1000 nM,"CC1CC(=O)Nc2cnc(Nc3ccc(C(=O)NC4CCN(C)CC4)cc3)nc2N1C1CCCC1 (stereo not drawn) [compound 38, 4-(9-Cyclopentyl-8-methyl-6-oxo-6,7,8,9-tetrahydro-5H-pyrimido[4,5-b][1,4]diazepin-2-ylamino)-N-(1-methyl-piperidin-4-yl)-benzamide]"
15,< 10000 nM,"COc1cc(C(=O)NC2CCN(C)CC2)ccc1Nc1ncc2c(n1)N(C1CCCCC1)CCC(=O)N2 [compound 39, 4-(9-Cyclohexyl-6-oxo-6,7,8,9-tetrahydro-5H-pyrimido[4,5-b][1,4]diazepin-2-ylamino)-3-methoxy-N-(1-methyl-piperidin-4-yl)-benzamide]"

row,SMILES,IC50
1,"COc1cc(C(=O)NC2CCN(C)CC2)ccc1Nc1ncc2c(n1)N(C1CCCC1)CC(C)C(=O)N2 (stereo not drawn) [compound 17, 4-(9-Cyclopentyl-7-methyl-6-oxo-6,7,8,9-tetrahydro-5H-pyrimido[4,5-b][1,4]diazepin-2-ylamino)-3-methoxy-N-(1-methyl-piperidin-4-yl)-benzamide]",< 10000 nM
2,"COc1cc(C(=O)NC2CCN(C)CC2)ccc1Nc1ncc2c(n1)N(C1CCCC1)C(C)CC(=O)N2 (stereo not drawn) [compound 34, 4-(9-Cyclopentyl-8-methyl-6-oxo-6,7,8,9-tetrahydro-5H-pyrimido[4,5-b][1,4]diazepin-2-ylamino)-3-methoxy-N-(1-methyl-piperidin-4-yl)-benzamide]",< 1000 nM

# Same assay, conditions: Table 2, PLK1 IC50; class symbols; read-out: PLK1 IC50
row,IC50,SMILES
1,< 100 nM,"CCC1CN(C2CCCC2)c2nc(Nc3ccc(C(=O)NC4CCN(C)CC4)cc3OC)ncc2N(C)C1=O (stereo not drawn) [compound 40, 4-(9-Cyclopentyl-7-ethyl-5-methyl-6-oxo-6,7,8,9-tetrahydro-5H-pyrimido[4,5-b][1,4]diazepin-2-ylamino)-3-methoxy-N-(1-methyl-piperidin-4-yl)-benzamide]"
2,< 10000 nM,"COc1cccc(N2CCC(=O)N(C)c3cnc(Nc4ccc(C(=O)NC5CCN(C)CC5)cc4OC)nc32)c1 [compound 48, 3-Methoxy-4-[9-(3-methoxy-phenyl)-5-methyl-6-oxo-6,7,8,9-tetrahydro-5H-pyrimido[4,5-b][1,4]diazepin-2-ylamino]-N-(1-methyl-piperidin-4-yl)-benzamide]"
3,< 1000 nM,"COc1cc(C(=O)NC2CCN(C)CC2)ccc1Nc1ncc2c(n1)N(c1ccccc1F)CCC(=O)N2C [compound 52, 4-[9-(2-Fluoro-phenyl)-5-methyl-6-oxo-6,7,8,9-tetrahydro-5H-pyrimido[4,5-b][1,4]diazepin-2-ylamino]-3-methoxy-N-(1-methyl-piperidin-4-yl)-benzamide]"
4,< 1000 nM,"CCOc1cc(C(=O)NC2CCN(C)CC2)ccc1Nc1ncc2c(n1)N(C1CCCC1)CCC(=O)N2C [compound 59, 4-(9-Cyclopentyl-5-methyl-6-oxo-6,7,8,9-tetrahydro-5H-pyrimido[4,5-b][1,4]diazepin-2-ylamino)-3-ethoxy-N-(1-methyl-piperidin-4-yl)-benzamide]"
5,< 1000 nM,"COc1ccccc1Nc1ncc2c(n1)N(C1CCCC1)CCC(=O)N2C [compound 60, 9-Cyclopentyl-2-(2-methoxy-phenylamine)-5-methyl-5,7,8,9-tetrahydro-pyrimido[4,5-b][1,4]diazepin-6-one]"
6,< 1000 nM,"CN1C(=O)CCN(C2CCCC2)c2nc(NCc3ccccc3)ncc21 [compound 62, 2-Benzylamino-9-cyclopentyl-5-methyl-5,7,8,9-tetrahydro-pyrimido[4,5-b][1,4]diazepin-6-one]"
7,< 100 nM,"COc1cc(C(=O)NC2CCN(C)CC2)ccc1Nc1ncc2c(n1)N(CC1CC1)CCC(=O)N2C [compound 65, 4-(9-Cyclopropylmethyl-5-methyl-6-oxo-6,7,8,9-tetrahydro-5H-pyrimido[4,5-b][1,4]diazepin-2-ylamino)-3-methoxy-N-(1-methyl-piperidin-4-yl)-benzamide]"
8,< 1000 nM,"CCCCN1CCC(=O)N(C)c2cnc(Nc3ccc(C(=O)NC4CCN(C)CC4)cc3OC)nc21 [compound 66, 4-(9-Butyl-5-methyl-6-oxo-6,7,8,9-tetrahydro-5H-pyrimido[4,5-b][1,4]diazepin-2-ylamino)-3-methoxy-N-(1-methyl-piperidin-4-yl)-benzamide]"
9,< 100 nM,"COc1cc(C(=O)NC2CCN(C)CC2)ccc1Nc1ncc2c(n1)N(C(C)C)CCC(=O)N2C [compound 67, 4-(9-Isopropyl-5-methyl-6-oxo-6,7,8,9 tetrahydro-5H-pyrimido[4,5-b][1,4]diazepin-2-ylamino)-3-methoxy-N-(1-methyl-piperidin-4-yl)-benzamide]"
10,< 1000 nM,"COc1cc(C(=O)NC2CCN(C)CC2)ccc1Nc1ncc2c(n1)N(CCC(C)C)CCC(=O)N2C [compound 68, 3-Methoxy-4-[5-methyl-9-(3-methyl-butyl)-6-oxo-6,7,8,9-tetrahydro-5H-pyrimido[4,5-b][1,4]diazepin-2-ylamino]-N-(1-methyl-piperidin-4-yl)-benzamide]"
11,< 1000 nM,"COc1cc(C(=O)NC2CCN(C)CC2)ccc1Nc1ncc2c(n1)N(CC1CCCC1)CCC(=O)N2C [compound 69, 4-(9-Cyclopentylmethyl-5-methyl-6-oxo-6,7,8,9-tetrahydro-5H-pyrimido[4,5-b][1,4]diazepin-2-ylamino)-3-methoxy-N-(1-methyl-piperidin-4-yl)-benzamide]"
